PubChem BioAssay (NCI)
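Growth conditions: 96-well plates. Treatment: test compound, 48 hours, 5 concentrations. Analysis: linear interpolation between bracketing concentrations; unreached endpoints set to highest concentration. TGI marks complete inhibition of growth.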

Tested on: UO-31 renal
Assay: NCI-60 cell line screen, 48 h

Point of comparison: `Cc1ccc(S(=O)(=O)N2C3C=CC(C3)[C@@H]2C(Cl)(Cl)Cl)cc1` (some centres undefined), TGI 59.3 µM. Against it:
- O=C1c2sc(-c3ccc(Cl)cc3)cc2-n2cccc21 — higher, > 100 µM
- O=C1SC(SCc2ccccc2)=NC12CC2c1ccccc1 (centres undefined) — within 1.5-fold, 41.2 µM
- N=c1oc2ccccc2cc1C(=O)NC12CC3CC(CC(C3)C1)C2 — 130-fold lower, 0.471 µM
- O=C1NC2(CCN(CCc3ccccc3)CC2)Oc2ccccc21 — higher, > 100 µM
- COc1cc2c(/C=C3/C(=O)Nc4cccc(Cl)c43)c(Cl)[nH]c2cc1C — 3.5-fold lower, 17.1 µM
- Nc1ncc2c(n1)-c1ccccc1OC2N1CCCCC1 (centres undefined) — higher, > 100 µM
- COCOC1/C=C/CCCCC(=O)C(C)C#CC1 (centres undefined) — 3.1-fold lower, 18.9 µM
- C[N+]12C=CC=C1C(N1CCCC1)c1scc(-c3ccc(Br)cc3)c12 (centres undefined) — higher, > 100 µM
- COC(=O)c1cccc(C)c1C1CN=NC12Cc1cc(C)cc(C)c1C2=O (centres undefined) — higher, > 100 µM
- O=C1c2ccccc2-n2nnnc2C2CSCN12 (centres undefined) — higher, > 100 µM
- CCOC(=O)/C(C#N)=C/c1coc2cc(C)cc(C)c2c1=O — higher, > 100 µM
- COc1ccc(C(SCCO)(c2ccccc2)c2ccc(OC)cc2)cc1 — 1.9-fold lower, 31.7 µM
- O=C1C(Br)=C(Br)C(=O)c2ccc(=O)ccc21 — 1.7-fold lower, 34.9 µM
- CC(N)/C(N)=N/O (centres undefined) — higher, > 100 µM
- CCOC(=O)CCC(NC(=O)C(N)Cc1ccc(N(CCCl)CCCl)cc1)C(=O)OCC (centres undefined) — 20-fold lower, 2.92 µM
- COc1ccccc1CC(=O)C(O)(C(F)(F)F)C(F)(F)F — higher, > 100 µM
- CCOC(=O)c1ccc(-c2cc(C)no2)[nH]1 — higher, > 100 µM

Tested on: CCRF-CEM leukemia
Assay: NCI-60 cell line screen, 48 h

Point of comparison: `O=C1c2cccc3cc([N+](=O)[O-])cc(c23)C(=O)N1Nc1ccc([N+](=O)[O-])cc1[N+](=O)[O-]`, TGI 14.5 µM. Against it:
- NC(Cc1ccccc1)C(=O)NC(Cc1ccccc1)NC(=O)C(Cc1c[nH]c2ccccc12)C(=O)O (centres undefined) — higher, > 100 µM
- COc1cc(S(=O)(=O)Nc2ccc(-c3csc(N4C(=O)CSC4c4cccc(Oc5ccccc5)c4)n3)cc2)ccc1Cl (centres undefined) — higher, > 100 µM
- CC(=O)CC1CCC(=O)/C=C/C(=O)OC(CC(C)=O)CCC(=O)/C=C/C(=O)O1 (centres undefined) — higher, > 100 µM
- O=C1c2sc(-c3ccc(Cl)cc3)cc2-n2cccc21 — higher, > 100 µM
- O=C1SC(SCc2ccccc2)=NC12CC2c1ccccc1 (centres undefined) — within 1.5-fold, 11.1 µM
- N=c1oc2ccccc2cc1C(=O)NC12CC3CC(CC(C3)C1)C2 — within 1.5-fold, 17.2 µM
- O=C1NC2(CCN(CCc3ccccc3)CC2)Oc2ccccc21 — higher, > 100 µM
- COc1cc2c(/C=C3/C(=O)Nc4cccc(Cl)c43)c(Cl)[nH]c2cc1C — 4.4-fold lower, 3.3 µM
- Nc1ncc2c(n1)-c1ccccc1OC2N1CCCCC1 (centres undefined) — higher, > 100 µM
- Cc1ccc(S(=O)(=O)N2C3C=CC(C3)[C@@H]2C(Cl)(Cl)Cl)cc1 (some centres undefined) — 4.9-fold higher, 71.2 µM
- COCOC1/C=C/CCCCC(=O)C(C)C#CC1 (centres undefined) — 2.5-fold lower, 5.81 µM
- C[N+]12C=CC=C1C(N1CCCC1)c1scc(-c3ccc(Br)cc3)c12 (centres undefined) — 4.1-fold higher, 58.9 µM
- COC(=O)c1cccc(C)c1C1CN=NC12Cc1cc(C)cc(C)c1C2=O (centres undefined) — higher, > 100 µM
- O=C1c2ccccc2-n2nnnc2C2CSCN12 (centres undefined) — higher, > 100 µM
- CCOC(=O)/C(C#N)=C/c1coc2cc(C)cc(C)c2c1=O — higher, > 100 µM
- COc1ccc(C(SCCO)(c2ccccc2)c2ccc(OC)cc2)cc1 — 2.8-fold higher, 40.7 µM
- O=C1C(Br)=C(Br)C(=O)c2ccc(=O)ccc21 — within 1.5-fold, 17 µM
- CC(N)/C(N)=N/O (centres undefined) — higher, > 100 µM
- CCOC(=O)CCC(NC(=O)C(N)Cc1ccc(N(CCCl)CCCl)cc1)C(=O)OCC (centres undefined) — 3.4-fold lower, 4.29 µM
- COc1ccccc1CC(=O)C(O)(C(F)(F)F)C(F)(F)F — higher, > 100 µM
- CCOC(=O)c1ccc(-c2cc(C)no2)[nH]1 — higher, > 100 µM

Tested on: ACHN renal
Assay: NCI-60 cell line screen, 48 h

Point of comparison: `O=C1C(Br)=C(Br)C(=O)c2ccc(=O)ccc21`, TGI 33.8 µM. Against it:
- NC(Cc1ccccc1)C(=O)NC(Cc1ccccc1)NC(=O)C(Cc1c[nH]c2ccccc12)C(=O)O (centres undefined) — higher, > 100 µM
- COc1cc(S(=O)(=O)Nc2ccc(-c3csc(N4C(=O)CSC4c4cccc(Oc5ccccc5)c4)n3)cc2)ccc1Cl (centres undefined) — higher, > 100 µM
- O=C1c2cccc3cc([N+](=O)[O-])cc(c23)C(=O)N1Nc1ccc([N+](=O)[O-])cc1[N+](=O)[O-] — 4.8-fold lower, 7.06 µM
- CC(=O)CC1CCC(=O)/C=C/C(=O)OC(CC(C)=O)CCC(=O)/C=C/C(=O)O1 (centres undefined) — 3-fold lower, 11.2 µM
- O=C1c2sc(-c3ccc(Cl)cc3)cc2-n2cccc21 — higher, > 100 µM
- O=C1SC(SCc2ccccc2)=NC12CC2c1ccccc1 (centres undefined) — within 1.5-fold, 38.2 µM
- N=c1oc2ccccc2cc1C(=O)NC12CC3CC(CC(C3)C1)C2 — within 1.5-fold, 31.4 µM
- O=C1NC2(CCN(CCc3ccccc3)CC2)Oc2ccccc21 — higher, > 100 µM
- COc1cc2c(/C=C3/C(=O)Nc4cccc(Cl)c43)c(Cl)[nH]c2cc1C — 2.8-fold lower, 12.2 µM
- Nc1ncc2c(n1)-c1ccccc1OC2N1CCCCC1 (centres undefined) — higher, > 100 µM
- Cc1ccc(S(=O)(=O)N2C3C=CC(C3)[C@@H]2C(Cl)(Cl)Cl)cc1 (some centres undefined) — 1.6-fold higher, 53.1 µM
- COCOC1/C=C/CCCCC(=O)C(C)C#CC1 (centres undefined) — 1.7-fold lower, 19.9 µM
- C[N+]12C=CC=C1C(N1CCCC1)c1scc(-c3ccc(Br)cc3)c12 (centres undefined) — higher, > 100 µM
- COC(=O)c1cccc(C)c1C1CN=NC12Cc1cc(C)cc(C)c1C2=O (centres undefined) — higher, > 100 µM
- O=C1c2ccccc2-n2nnnc2C2CSCN12 (centres undefined) — higher, > 100 µM
- CCOC(=O)/C(C#N)=C/c1coc2cc(C)cc(C)c2c1=O — higher, > 100 µM
- COc1ccc(C(SCCO)(c2ccccc2)c2ccc(OC)cc2)cc1 — within 1.5-fold, 29.6 µM
- CC(N)/C(N)=N/O (centres undefined) — higher, > 100 µM
- CCOC(=O)CCC(NC(=O)C(N)Cc1ccc(N(CCCl)CCCl)cc1)C(=O)OCC (centres undefined) — 49-fold lower, 0.692 µM
- COc1ccccc1CC(=O)C(O)(C(F)(F)F)C(F)(F)F — higher, > 100 µM
- CCOC(=O)c1ccc(-c2cc(C)no2)[nH]1 — higher, > 100 µM

Tested on: OVCAR-3 ovarian
Assay: NCI-60 cell line screen, 48 h

Point of comparison: `C[N+]12C=CC=C1C(N1CCCC1)c1scc(-c3ccc(Br)cc3)c12` (centres undefined), TGI 39.1 µM. Against it:
- NC(Cc1ccccc1)C(=O)NC(Cc1ccccc1)NC(=O)C(Cc1c[nH]c2ccccc12)C(=O)O (centres undefined) — higher, > 100 µM
- COc1cc(S(=O)(=O)Nc2ccc(-c3csc(N4C(=O)CSC4c4cccc(Oc5ccccc5)c4)n3)cc2)ccc1Cl (centres undefined) — higher, > 100 µM
- O=C1c2cccc3cc([N+](=O)[O-])cc(c23)C(=O)N1Nc1ccc([N+](=O)[O-])cc1[N+](=O)[O-] — 2.1-fold higher, 82.8 µM
- CC(=O)CC1CCC(=O)/C=C/C(=O)OC(CC(C)=O)CCC(=O)/C=C/C(=O)O1 (centres undefined) — 2.3-fold lower, 17.1 µM
- O=C1c2sc(-c3ccc(Cl)cc3)cc2-n2cccc21 — higher, > 100 µM
- O=C1SC(SCc2ccccc2)=NC12CC2c1ccccc1 (centres undefined) — higher, > 72.7 µM
- N=c1oc2ccccc2cc1C(=O)NC12CC3CC(CC(C3)C1)C2 — within 1.5-fold, 37.5 µM
- O=C1NC2(CCN(CCc3ccccc3)CC2)Oc2ccccc21 — higher, > 100 µM
- COc1cc2c(/C=C3/C(=O)Nc4cccc(Cl)c43)c(Cl)[nH]c2cc1C — 9.1-fold lower, 4.29 µM
- Nc1ncc2c(n1)-c1ccccc1OC2N1CCCCC1 (centres undefined) — higher, > 100 µM
- Cc1ccc(S(=O)(=O)N2C3C=CC(C3)[C@@H]2C(Cl)(Cl)Cl)cc1 (some centres undefined) — 1.5-fold lower, 25.3 µM
- COCOC1/C=C/CCCCC(=O)C(C)C#CC1 (centres undefined) — 3.6-fold lower, 10.9 µM
- COC(=O)c1cccc(C)c1C1CN=NC12Cc1cc(C)cc(C)c1C2=O (centres undefined) — higher, > 100 µM
- O=C1c2ccccc2-n2nnnc2C2CSCN12 (centres undefined) — higher, > 100 µM
- CCOC(=O)/C(C#N)=C/c1coc2cc(C)cc(C)c2c1=O — higher, > 100 µM
- COc1ccc(C(SCCO)(c2ccccc2)c2ccc(OC)cc2)cc1 — within 1.5-fold, 33.9 µM
- O=C1C(Br)=C(Br)C(=O)c2ccc(=O)ccc21 — within 1.5-fold, 41.8 µM
- CC(N)/C(N)=N/O (centres undefined) — higher, > 100 µM
- CCOC(=O)CCC(NC(=O)C(N)Cc1ccc(N(CCCl)CCCl)cc1)C(=O)OCC (centres undefined) — 23-fold lower, 1.68 µM
- COc1ccccc1CC(=O)C(O)(C(F)(F)F)C(F)(F)F — higher, > 100 µM
- CCOC(=O)c1ccc(-c2cc(C)no2)[nH]1 — higher, > 100 µM
